Assay results published in patent US20070117743A1, “New antitumoral compounds” (priority 2003, published 2007).
Where a SMILES comes first, the peptide text is derived from it. Bridges are numbered along the chain shown (N, C = ends). [ ]: non-standard residue; d: D form. The star is where a group is joined. d(aIle) = CC[C@H](C)[C@@H](N)C(=O)O; d(aThr) = C[C@@H](O)[C@@H](N)C(=O)O; Hexanoyl(5-Me) = CC(C)CCCC(=O)*; Orn = NCCC[C@H](N)C(=O)O; Dhb = C/C=C(\N)C(=O)O

Columns and labels:
Format in all cases: cell-based, human
DU-145 = assay: SRB colorimetric assay of cell growth and viability, DU-145; conditions: DU-145; 48 hours exposure
HeLa = assay: SRB colorimetric assay of cell growth and viability, HeLa; conditions: HELA, 48 hours exposure; for CC50: read-out: LC50 HELA
A-549 = assay: SRB colorimetric assay of cell growth and viability, A-549; conditions: A-549, 48 hours exposure; for GI50: read-out: GI50 A-549; for CC50: read-out: LC50 A-549
LNCaP = assay: SRB colorimetric assay of cell growth and viability, LNCaP; conditions: LN-caP, 48 hours exposure; for CC50: read-out: LC50 LN-caP
IGROV-1 = assay: SRB colorimetric assay of cell growth and viability, IGROV-1; conditions: IGROV; 48 hours exposure
SK-BR-3 = assay: SRB colorimetric assay of cell growth and viability, SK-BR-3; conditions: SK-BR-3; 48 hours exposure
IGROV-ET = assay: SRB colorimetric assay of cell growth and viability, IGROV-ET; conditions: IGROV-ET, 48 hours exposure; for CC50: read-out: LC50 IGROV-ET
HT-29 = assay: SRB colorimetric assay of cell growth and viability, HT-29; conditions: HT-29, 48 hours exposure; for GI50: read-out: GI50 HT-29; for CC50: read-out: LC50 HT-29
K-562 = assay: SRB colorimetric assay of cell growth and viability, K-562; conditions: K-562, 48 hours exposure; for CC50: read-out: LC50 K-562
PANC-1 = assay: SRB colorimetric assay of cell growth and viability, PANC-1; conditions: PANC-1, 48 hours exposure; for CC50: read-out: LC50 PANC-1
HeLa-APL = assay: SRB colorimetric assay of cell growth and viability, HeLa-APL; conditions: HELA-APL, 48 hours exposure; for CC50: read-out: LC50 HELA-APL
SK-MEL-28 = assay: SRB colorimetric assay of cell growth and viability, SK-MEL-28; conditions: MEL-28, 48 hours exposure; for CC50: read-out: LC50 MEL-28
LoVo-Dox = assay: SRB colorimetric assay of cell growth and viability, LoVo-Dox; conditions: LOVO-DOX, 48 hours exposure; for CC50: read-out: LC50 LOVO-DOX
Method in brief: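 Continuous 48-hour exposure of cells plated at 5×10^3 per well, with compounds diluted in DMSO:EtOH:PBS (0.5:0.5:99) over 10 to 10^−8 μg/mL. Staining with SRB and reading at 490 nm give GI, TGI and LC.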

Structure (SMILES) | GI50 (DU-145) [µM] | LC50 (concentration causing 50% net cell kill) (DU-145) [µM] | TGI DU-145 (DU-145) [Molar] | GI50 (HeLa) [µM] | TGI HELA (HeLa) [Molar] | CC50 (HeLa) [µM] | TGI A-549 (A-549) [Molar] | GI50 (A-549) [µM] | CC50 (A-549) [µM] | GI50 (LNCaP) [µM] | TGI LN-caP (LNCaP) [Molar] | CC50 (LNCaP) [µM] | GI50 (IGROV-1) [µM] | LC50 (concentration causing 50% net cell killing) (IGROV-1) [µM] | TGI IGROV (IGROV-1) [Molar] | GI50 (SK-BR-3) [µM] | LC50 (SK-BR-3) [µM] | TGI SK-BR-3 (SK-BR-3) [Molar] | GI50 (IGROV-ET) [µM] | TGI IGROV-ET (IGROV-ET) [Molar] | other results
C/C=C1\NC(=O)[C@H](Cc2ccccc2)NC(=O)[C@@H](C(C)C)NC(=O)[C@@H]([C@@H](C)CC)NC(=O)[C@H](NC(=O)[C@H](NC(=O)[C@H](CCCN)NC(=O)[C@H]2CCCN2C(=O)[C@H](NC(=O)[C@@H](NC(=O)[C@H](C)NC(=O)[C@H](NC(=O)CCCC(C)C)C(C)C)C(C)C)C(C)C)[C@@H](C)CC)[C@@H](C)OC(=O)[C@H](C(C)C)NC1=O [Compound 112, [Ala^12]-KF] ({Hexanoyl(5-Me)}-[dV]AV[dV][dP][Orn][d(aIle)][d(aThr)][d(aIle)][dV]F[Dhb]V; ester 8-C) | 1.34 | 5.91 | 2.82E−06 | 0.739 | 2.41E−06 | 6.91 | 2.87E−06 | 1.45 | 5.64 | 1.19 | 2.64E−06 | 5.85 | 1.31 | 6.91 | 3.09E−06 | 3.97 | 6.91 | 5.84E−06 | 1.51 | 3.44E−06 | CC50 (IGROV-ET): 6.91 µM; TGI HT-29 (HT-29): 2.26E−06 Molar; GI50 (HT-29): 1.15 µM; CC50 (HT-29): 4.45 µM; GI50 (K-562): 2.79 µM; TGI K-562 (K-562): 5.62E−06 Molar; CC50 (K-562): 6.91 µM; GI50 (PANC-1): 1.91 µM; TGI PANC-1 (PANC-1): 5.43E−06 Molar; CC50 (PANC-1): 6.91 µM; GI50 (HeLa-APL): 1.42 µM; TGI HELA-APL (HeLa-APL): 2.85E−06 Molar; CC50 (HeLa-APL): 5.75 µM; GI50 (SK-MEL-28): 1.39 µM; TGI MEL-28 (SK-MEL-28): 2.74E−06 Molar; CC50 (SK-MEL-28): 5.43 µM; GI50 (LoVo-Dox): 1.11 µM; TGI LOVO-DOX (LoVo-Dox): 2.76E−06 Molar; CC50 (LoVo-Dox): 6.85 µM
C/C=C1\NC(=O)[C@H](Cc2ccccc2)NC(=O)[C@@H](C(C)C)NC(=O)[C@@H]([C@@H](C)CC)NC(=O)[C@H](NC(=O)[C@H](NC(=O)[C@H](CCCN)NC(=O)[C@H]2CCCN2C(=O)[C@H](NC(=O)[C@@H](NC(=O)[C@H](CCC(=O)O)NC(=O)[C@H](NC(=O)CCCC(C)C)C(C)C)C(C)C)C(C)C)[C@@H](C)CC)[C@@H](C)OC(=O)[C@H](C(C)C)NC1=O [Compound 115, [Glu^12]-KF] ({Hexanoyl(5-Me)}-[dV]EV[dV][dP][Orn][d(aIle)][d(aThr)][d(aIle)][dV]F[Dhb]V; ester 8-C) | 3.25 | 6.64 | 6.64E−06 | 6.64 | 6.64E−06 | 6.64 | 6.64E−06 | 4.1 | 6.64 | 1.28 | 2.54E−06 | 5.01 | 1.54 | 6.64 | 3.59E−06 | 1.35 | 6.64 | 3.01E−06 | 1.67 | 3.12E−06 | CC50 (IGROV-ET): 5.83 µM; TGI HT-29 (HT-29): 2.60E−06 Molar; GI50 (HT-29): 1.33 µM; CC50 (HT-29): 5.09 µM; GI50 (K-562): 6.64 µM; TGI K-562 (K-562): 6.64E−06 Molar; CC50 (K-562): 6.64 µM; GI50 (PANC-1): 6.64 µM; TGI PANC-1 (PANC-1): 6.64E−06 Molar; CC50 (PANC-1): 6.64 µM; GI50 (HeLa-APL): 2.99 µM; TGI HELA-APL (HeLa-APL): 6.64E−06 Molar; CC50 (HeLa-APL): 6.64 µM; GI50 (SK-MEL-28): 6.5 µM; TGI MEL-28 (SK-MEL-28): 6.64E−06 Molar; CC50 (SK-MEL-28): 6.64 µM; GI50 (LoVo-Dox): 1.52 µM; TGI LOVO-DOX (LoVo-Dox): 3.00E−06 Molar; CC50 (LoVo-Dox): 5.92 µM
C/C=C1\NC(=O)[C@H](Cc2ccccc2)NC(=O)[C@@H](C(C)C)NC(=O)[C@@H]([C@@H](C)CC)NC(=O)[C@H](NC(=O)[C@H](NC(=O)[C@H](CCCN)NC(=O)[C@H]2CCCN2C(=O)[C@H](NC(=O)[C@@H](NC(=O)[C@H](CCCN)NC(=O)[C@H](NC(=O)CCCC(C)C)C(C)C)C(C)C)C(C)C)[C@@H](C)CC)[C@@H](C)OC(=O)[C@H](C(C)C)NC1=O [Compound 116, [Orn^12]-KF] ({Hexanoyl(5-Me)}-[dV][Orn]V[dV][dP][Orn][d(aIle)][d(aThr)][d(aIle)][dV]F[Dhb]V; ester 8-C) | 3.32 | 6.71 | 6.71E−06 | 1.54 | 3.35E−06 | 6.71 | 6.71E−06 | 6.71 | 6.71 | 1.54 | 3.10E−06 | 6.24 | 2.05 | 6.71 | 3.86E−06 | 1.45 | 5.51 | 2.82E−06 | 1.87 | 3.23E−06 | CC50 (IGROV-ET): 5.55 µM; TGI HT-29 (HT-29): 3.88E−06 Molar; GI50 (HT-29): 2.24 µM; CC50 (HT-29): 6.71 µM; GI50 (K-562): 0.919 µM; TGI K-562 (K-562): 2.34E−06 Molar; CC50 (K-562): 5.94 µM; GI50 (PANC-1): 6.08 µM; TGI PANC-1 (PANC-1): 6.71E−06 Molar; CC50 (PANC-1): 6.71 µM; GI50 (HeLa-APL): 3 µM; TGI HELA-APL (HeLa-APL): 6.71E−06 Molar; CC50 (HeLa-APL): 6.71 µM; GI50 (SK-MEL-28): 4.32 µM; TGI MEL-28 (SK-MEL-28): 6.71E−06 Molar; CC50 (SK-MEL-28): 6.71 µM; GI50 (LoVo-Dox): 1.94 µM; TGI LOVO-DOX (LoVo-Dox): 3.71E−06 Molar; CC50 (LoVo-Dox): 6.71 µM
